Assay results from publication PMC6736568, “Discovery of Novel Anti-cryptosporidial Activities From Natural Products by in vitro High-Throughput Phenotypic Screening” (Frontiers in Microbiology, 2019).
Read-outs that look alike come from different tables or passages of the source. *1 amine or outer side, *2 acyl side, *3 side chain or, on linkers, in order; H or OH if unused. Where a SMILES comes first, the peptide text is derived from it. Bridges are numbered along the chain shown (N, C = ends). Roman numbers before positions name the chains, in order. [ ]: non-standard residue; d: D form. Actinocin(9to1) = Cc1c2oc3c(C)ccc(C(=O)[*:1])c3nc-2c(C(=O)[*:2])c(N)c1=O; NMeV = CN[C@H](C(=O)O)C(C)C; Sar = CNCC(=O)O

Experiments:
Cryptosporidium parvum = assay: qRT-PCR assay of the growth of C. parvum in vitro in HCT-8 host cells (primary and secondary screening, EC50); format: cell-based; settings: Cryptosporidium parvum; for inhibition at 10 µM / inhibition at 3.3 µM: HCT-8; for inhibition at 10 µM: primary screening at 10 uM, read-out: Inhibition (%); for inhibition at 3.3 µM: secondary screening at 3.3 uM, read-out: % Inhibition (3.3 uM); for EC50: growth of C. parvum in vitro, HCT-8 host cells, 44 h infection
in vitro = settings: for cytotoxicity at 41 h, 10 µM: human
HCT-8 cells = assay: In vitro cytotoxicity MTS assay on host cells; format: cell-based, human; settings: 41 h
Procedure: The plates were measured for absorbance at 490 nm in 15 min intervals in a SmartReader 96 microplate reader (Accuris, Edison, NJ, United States). Cytotoxicity of a compound was quantified by calculating the half maximal toxic concentration on host cells (TC50). An in vitro safety interval (SI) was calculated by determining the ratio between TC50 and EC50 values (i.e., SI = TC50/EC50).

[1] = primary screening at 10 uM, treated vs control

Hs18S ΔCT (HCT-8 host cells (Hs18S); human, 41 h, 10 μM) | SMILES | inhibition at 10 µM (Cryptosporidium parvum) | inhibition at 3.3 µM (Cryptosporidium parvum) | EC50 (Cryptosporidium parvum) | cytotoxicity at 41 h, 10 µM (in vitro) | TC50 (HCT-8 cells; HCT-8 cells, MTS) | TC50 (HCT-8 cells; human) | cytotoxicity at 10 µM (in vitro) | Hs18S ΔCT (HCT-8 host cells (Hs18S); [1]) | Hs18S ΔCT (HCT-8 host cells (Hs18S))
0.24 | COc1ccc2c(c1)OCC(Cc1ccc(OC)c(OC(C)=O)c1)C2=O (centres unmarked) [Deoxysappanone B 7,3′-dimethyl ether acetate] | 87.4% | 71% | 1190 nM | 15.5% | >100000 nM |  |  |  | 
0.10 | COc1ccc(C(=O)c2ccc(O)cc2)c(O)c1O [2,3,4′-Trihydroxy-4-methoxybenzophenone] | 83.2% | 59% | 3690 nM | 6.4% | >100000 nM |  |  |  | 
 | CC(C)[C@@H]1NC(=O)[C@H](C)OC(=O)[C@@H](C(C)C)NC(=O)[C@@H](C(C)C)OC(=O)[C@H](C(C)C)NC(=O)[C@H](C)OC(=O)[C@@H](C(C)C)NC(=O)[C@@H](C(C)C)OC(=O)[C@H](C(C)C)NC(=O)[C@H](C)OC(=O)[C@@H](C(C)C)NC(=O)[C@@H](C(C)C)OC1=O [Valinomycin, reference compound] | 92.3% | 87% | 122 nM |  | >50000 nM |  | -9.2% | -0.13 | 
 | Cc1c2oc3c(C)ccc(C(=O)N[C@@H]4C(=O)N[C@H](C(C)C)C(=O)N5CCC[C@H]5C(=O)N(C)CC(=O)N(C)[C@@H](C(C)C)C(=O)O[C@@H]4C)c3nc-2c(C(=O)N[C@@H]2C(=O)N[C@H](C(C)C)C(=O)N3CCC[C@H]3C(=O)N(C)CC(=O)N(C)[C@@H](C(C)C)C(=O)O[C@@H]2C)c(N)c1=O [Dactinomycin, reference compound] (I: T[dV]P[Sar][NMeV] / II: T[dV]P[Sar][NMeV]; ester I:1-I:C, II:1-II:C; linker I:N-II:N via Actinocin(9to1)) | 94.3% | 97% | 314 nM |  | 2820 nM |  | 64.6% | 1.50 | 
 | CC(C)=CCCC1(C)C=Cc2c(O)c3c(c(CC=C(C)C)c2O1)OC12C(=CC4CC1C(C)(C)OC2(C/C=C(/C)C(=O)O)C4O)C3=O (centres unmarked) [Dihydrogambogic acid] | 97.7% | 57% | 1670 nM |  |  | 6310 nM | -52% | -0.60 | 
0.60 | CC[C@H](C)C(=O)O[C@H]1C[C@@H](C)C=C2C=C[C@H](C)[C@H](CC[C@@H]3C[C@@H](O)CC(=O)O3)[C@H]21 [Lovastatin, reference compound] | 85.8% | 58% | 2410 nM | 34.1% | >100000 nM |  |  |  | 
 | CC1(C)C(=O)C=C[C@]2(C)[C@H]3CC[C@@]4(C)[C@H](c5ccoc5)OC(=O)[C@H]5O[C@]54[C@]3(C)[C@H](O)C[C@@H]12 [Deacetylgedunin] | 91.1% | 56% | 1770 nM |  | 30900 nM |  | 14.8% | 0.23 | 
 | CC1(C)C(=O)C=C[C@]2(C)[C@H]3CC[C@@]4(C)[C@H](c5ccoc5)OC(=O)[C@H]5O[C@]54[C@]3(C)C(=O)C[C@@H]12 [Deacetoxy-7-oxogedunin] | 88.7% | 77% | 1940 nM |  | 12800 nM |  | 23.6% | 0.39 | 
 | Cc1coc2c1C(=O)C(=O)c1c-2ccc2c1CCCC2(C)C [Tanshinone IIA] | 82.7% | 63% | 964 nM |  | >100000 nM |  | 5.6% | 0.08 | 
 | CO[C@@]12[C@H](COC(N)=O)C3=C(C(=O)C(C)=C(N)C3=O)N1C[C@@H]1N[C@@H]12 [Mitomycin, reference compound] | 93.7% | 78% | 133 nM |  | 13100 nM |  | 60.5% |  | 1.34
-0.49 | COC(=O)C[C@H]1C(C)(C)[C@@H](O)[C@@H]2CC3=C4C=C(OC)O[C@@H](c5ccoc5)[C@]4(C)CCC3[C@@]1(C)C2=O (stereo partly drawn) [3-Deoxo-3beta-hydroxy-mexicanolide 16-enol ether] | 90% | 71% | 3940 nM | -40.1% | >100000 nM |  |  |  | 

SMILES | Hs18S ΔCT (HCT-8 host cells (Hs18S); human, 41 h, 10 μM) | inhibition at 10 µM (Cryptosporidium parvum) | inhibition at 3.3 µM (Cryptosporidium parvum) | EC50 (Cryptosporidium parvum) | cytotoxicity at 41 h, 10 µM (in vitro) | TC50 (HCT-8 cells; HCT-8 cells, MTS) | TC50 (HCT-8 cells; human) | cytotoxicity at 10 µM (in vitro) | Hs18S ΔCT (HCT-8 host cells (Hs18S); [1]) | Hs18S ΔCT (HCT-8 host cells (Hs18S))
CC1(C)C(=O)C=C[C@@]2(C)C1=C(O)C(=O)[C@]1(C)[C@@H]2CC[C@@]2(C)[C@H](c3ccoc3)C[C@H]3O[C@]321 [Cedrelone] | 1.38 | 99.5% |  | 267 nM | 61.7% |  | 3590 nM |  |  | 
O=c1cc(-c2ccccc2)oc2cc(O)c(O)c(O)c12 [Baicalein] | 0.10 | 81.3% | 66% | 981 nM | 6.7% |  | >100000 nM |  |  | 
Cc1cccc2c3c(ccc12)C1=C(C(=O)C3=O)[C@@H](C)CO1 [Dihydrotanshinone I] | 0.00 | 87% | 75% | 3080 nM | 0.2% |  | 25000 nM |  |  | 
